Source: US20060263453A1, “Methods and compositions for modulating glutamate dehydrogenase” (priority 2004, published 2006)
Where two headings read alike, the source gives them in different places.

What was measured:
[1] = test system: 'antenna-less' form of human GDH; assay: kinetic analysis of 'antenna-less' human GDH; assay type: biochemical; conditions: FIG. 4
Protocol: (§1) First, aliquots of GDH were extensively dialyzed against 0.1M sodium phosphate buffer, pH 7.0, which contained 1 mM ethylenediaminetetraacetic acid (EDTA). The enzyme concentrations were adjusted to 1 mg/ml and the amount of enzyme added to the reaction mixture, for kinetic analysis, was adjusted to yield optimal steady state velocity measurements. All solutions were made immediately prior to use. Enzyme assays were performed by monitoring reduced coenzyme absorbance at 340 nm using a Shimadzu UV-1601 spectrophotometer. The reductive amination reactions were performed in 3 mL volumes at pH 7.0 in the presence of 0.1 mM nicotinamide adenine dinucleotide (NADH), 50 mM NH4Cl, and 5 mM 2-oxoglutarate. The rate of NADH oxidation was calculated using an extinction coefficient of 6.22 mM^−1 cm^−1.
To this end, EGCG was tested against five different HI/HA mutant forms of GDH, namely, R265K, R269C, E296A, S448P, and H454Y. In addition, EGCG was tested against human wild type GDH (“WT”), GDH from Tetrahymena thermophilia (“tGDH”) that, like the HI/HA mutant GDH enzymes, is not regulated by GTP, and a human GDH that was missing a certain 48 residue ‘antenna-like’ feature protruding from the top of each of its six subunits that is necessary for ADP, GTP, and Palmitoyl CoA regulation. […]

islets = assay: [U-14C]-glutamine oxidation in islets; assay type: cell-based, rat
Protocol: In a first experiment, a batch of 100 islets were incubated with glucose-free Krebs-Ringer bicarbonate buffer, as described herein, containing 20 μM EGCG or 20 μM EGC and 2 mM glutamine for 60 minutes. The islets were then incubated in the presence of varying concentrations of BCH (shown in FIG. 7A) for 60 minutes, and for an additional 60 minutes in the presence of 2 mCi [U-^14C]-glutamine (NEN-Life Science Products, UK). Next, [U-^14C]-glutamine oxidation in the incubated islets was measured. A trap filter was placed in each tightly sealed glass tube of the perifusion apparatus to collect the ^14CO2 produced by the islets, and the amount of radioactivity was determined by liquid scintillation counting. The results are summarized in FIG. 7A, and are presented as means±S.E. from 4 separate experiments. […] The islets were then incubated in the presence of 10 mM BCH (or no BCH—to measure “baseline” glutamine oxidation levels) for 60 minutes. The islets were then incubated for an additional 60 minutes in the presence of 2 mCi [U-^14C]-glutamine (NEN-Life Science Products, UK). Next, [U-^14C]-glutamine oxidation in the incubated islets was measured, as described above.

[2] = ethanol, DMSO, dimethyl formamide; stored at −20° C.; cited from earlier work
rat islets = assay: insulin secretion and oxygen consumption during glucose stimulation; assay type: cell-based
Protocol: Next, insulin secretion and oxygen consumption were measured, as described herein, during glucose stimulation to confirm the above results. Isolated rat islets were isolated and cultured, as described above, with 10 mM glucose for 3 days and subsequently perifused in the oxygen consumption measurement apparatus described above. […] In general, FCCP is known to stimulate Mg^2+-ATPase activity, inhibit β-amyloid production, and mimic the effect of selective glutamate agonist N-methyl-D-aspartate (NMDA) on mitochondrial superoxide production. The results shown in FIG. 9 are presented as means±S.E. for 1000 islets from 3 separate experiments. Due to the high density of data, S.E. is only shown in every 20 samples.

GDH [3] = target: T1, GDH (Bos taurus, UniProt P00366); assay: steady state kinetic analysis of reductive amination, NADH or 2-oxoglutarate varied (Lineweaver-Burke plots); assay type: biochemical, bovine; set-up: Y-intercept (Lineweaver-Burke): unit not given beside the values
T1 construct: purchased Sigma Aldrich Chemical Company (St. Louis, Mo.)
T1 sequence (P00366 58-558): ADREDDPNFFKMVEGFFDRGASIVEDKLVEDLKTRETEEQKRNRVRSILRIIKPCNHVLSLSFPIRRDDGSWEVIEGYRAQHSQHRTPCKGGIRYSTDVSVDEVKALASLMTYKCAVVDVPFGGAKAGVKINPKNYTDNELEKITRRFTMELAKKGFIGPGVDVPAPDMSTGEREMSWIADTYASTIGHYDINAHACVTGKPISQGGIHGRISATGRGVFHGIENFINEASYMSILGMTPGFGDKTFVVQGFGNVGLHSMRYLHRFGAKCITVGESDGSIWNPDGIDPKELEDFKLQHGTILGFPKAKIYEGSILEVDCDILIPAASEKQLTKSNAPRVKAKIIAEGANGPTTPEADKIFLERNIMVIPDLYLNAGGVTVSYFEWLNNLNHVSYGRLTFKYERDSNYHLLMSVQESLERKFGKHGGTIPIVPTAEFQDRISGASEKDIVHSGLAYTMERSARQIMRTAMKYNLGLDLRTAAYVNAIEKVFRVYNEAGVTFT
Protocol: as §1
In this Example, EGCG was added to a reaction (at a final concentration of 0.0, 0.3, or 0.6 μM), along with various concentrations of NADH or 2-oxoglutarate, to further ascertain how EGCG inhibits the reductive amination reaction catalyzed by GDH. Such kinetic analysis was carried out as described above in Example 1.

GDH [4] = target: T1, GDH; assay: abrogation of EGCG inhibition of GDH by leucine, BCH and ADP; assay type: biochemical, bovine
Protocol: as §1
The ability of the activators BCH, leucine, and ADP to reverse EGCG regulation on GDH was next examined. More particularly, kinetic analysis of GDH activity was carried out as described in Example 1, wherein each reaction contained either (a) 0 μM EGCG plus leucine; (b) 1 μM EGCG plus leucine; (c) 0 μM EGCG plus BCH; (d) 1 μM EGCG plus BCH; (e) 0 μM EGCG plus ADP; or (f) 1 μM EGCG plus ADP.

[5] = 2-oxoglutarate varied, [EGCG] 0.3 μM
[6] = 2-oxoglutarate varied, [EGCG] 0.6 μM

O=C(O[C@@H]1Cc2c(O)cc(O)cc2O[C@@H]1c1cc(O)c(O)c(O)c1)c1cc(O)c(O)c(O)c1 [EGCG, (2R,3R)-2-(3,4,5-Trihydroxyphenyl)-3,4-dihydro-1 (2H)-benzopyran-3,5,7-triol 3-(3,4,5-trihydroxybenzoate)]
inhibition of 'antenna-less' human GDH [1]: did not inhibit
block of BCH stimulation of glutaminolysis (glutamine oxidation) (islets; 20 μM, 2 mM glutamine, FIG. 7A): completely blocked
effect on basal levels of glutamine oxidation (islets; 3 mM glutamine, no BCH, FIG. 7D): does not have an effect
effect on 10 mM BCH-stimulated glutamine oxidation (islets; 3 mM glutamine, FIG. 7B, 7C): inhibits glutamine oxidation in a dose-dependent manner
concentration of maximal effects on glutamine oxidation (islets; 10 mM BCH, 3 mM glutamine, FIG. 7B): approximately 20 μM
stability in organic solvents [2]: at least six months
effect on GSIS (rat islets; FIG. 9A): does not affect
effect on respiration during glucose stimulation (rat islets; FIG. 9B): does not affect
Slope (Lineweaver-Burke) (GDH [3]; [5]): 0.039 ± 0.002
Y-intercept (Lineweaver-Burke) (GDH [3]; [5]): 0.24 ± 0.1
Slope (Lineweaver-Burke) (GDH [3]; [6]): 0.15 ± 0.02
Y-intercept (Lineweaver-Burke) (GDH [3]; [6]): 0.097 ± 0.5
Slope (Lineweaver-Burke) (GDH [3]; NADH varied, [EGCG] 0.3 μM): 0.0026 ± 0.0002
Y-intercept (Lineweaver-Burke) (GDH [3]; NADH varied, [EGCG] 0.3 μM): 0.15 ± 0.01
Slope (Lineweaver-Burke) (GDH [3]; NADH varied, [EGCG] 0.6 μM): 0.0040 ± 0.0003
Y-intercept (Lineweaver-Burke) (GDH [3]; NADH varied, [EGCG] 0.6 μM): 0.2000 ± 0.02
mode of inhibition (GDH [3]; versus NADH and 2-oxoglutarate): non-competitive inhibition
inhibition at 1 µM (GDH [4]; 1 μM EGCG plus leucine, BCH or ADP, read-out: EGCG inhibition at the highest concentration of activators): ~30%
inhibition at 1 µM (GDH [4]; 1 μM EGCG, without activator, read-out: inhibition of the reaction): > 80%
